Structures can show the parent of a compound that is named as a salt.
Tests used:
peripheral lymphocytes = assay: Evaluation of peripheral blood lymphocyte reduction; assay type: in vivo; settings: po, 6 h, rat, orally administered, six hours after the administration, read-out: ED50 (dosage required to reduce number of lymphocytes by 50%)
Experimental: Evaluation of Peripheral Blood Lymphocyte Reduction
The compound or a solvent is orally administered to a rat. 3, 6, 24, 48 or 72 hours after the administration of the compounds, blood is drawn from the rat tail. Hematological testis carried out for the whole blood sample. Using an automated analyzer (Sysmex 2000Xi), total number of peripheral lymphocytes is obtained. By having at least three animals per group, activity of the compound on the total number of peripheral lymphocytes was evaluated. Lymphocyte reduction caused by the compound administration was evaluated via comparison with an animal group which had received the solvent only. Specifically, average number of the lymphocytes for the solvent administered group was taken as 100%, and from average number of the lymphocytes for the compound administered group, control % value was calculated. Further, in view of the dosage of the compound and the dosage of the compound that is required to reduce number of lymphocytes by 50% six hours after the administration compared to the control % value was calculated as ED50.

human S1P1 = biological target: T1, human S1P1 (Homo sapiens, UniProt P21453); assay: 35S-GTPγS binding assay using a membrane prepared from CHO cells which stably express S1P1 receptor; assay type: biochemical; settings: CHO cell membrane fraction stably expressing human S1P1, read-out: EC50 (concentration of agonist required to give 50% of its own maximum increase ratio), human S1P1
T1 construct: expressed in transfected cells
T1 sequence (P21453 whole entry): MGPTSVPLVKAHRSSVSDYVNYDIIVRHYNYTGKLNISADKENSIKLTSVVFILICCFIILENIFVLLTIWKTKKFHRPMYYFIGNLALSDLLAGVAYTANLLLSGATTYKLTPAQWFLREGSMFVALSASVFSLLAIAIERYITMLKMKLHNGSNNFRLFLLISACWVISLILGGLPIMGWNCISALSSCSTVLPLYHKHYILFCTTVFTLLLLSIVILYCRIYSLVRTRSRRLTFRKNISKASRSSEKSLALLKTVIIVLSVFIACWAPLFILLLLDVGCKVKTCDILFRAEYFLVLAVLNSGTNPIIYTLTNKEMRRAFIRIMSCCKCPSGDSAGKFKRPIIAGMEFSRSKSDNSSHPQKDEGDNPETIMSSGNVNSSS
Experimental: ^35S-GTPγS Binding Assay Using a Membrane Prepared from CHO Cells Which Stably Express S1P1 Receptor
Functional activation of human S1P1 by the compounds was determined based on quantification of ^35S-GTPγS binding to G protein due to the receptor activation, by using a cell membrane fraction prepared from CHO cells in which human S1P1 are stably expressed. As for human S1P1, the above described human S1P1 was used. Membrane proteins as prepared and various concentrations of sphingosine-1-phosphate or the compounds diluted in a solvent such as DMSO were incubated in a solution comprising 20 mM Tris-Cl (pH 7.5), 100 mM NaCl, 10 mM MgCl2, […] (Upstate), 0.1% BSA (fatty acid free, Sigma) and 25 pM ^35S-GTPγS (specific activity 1250 Ci/mmol) in 96 well microtiter plates. Binding was performed by incubating them for 90 minutes at room temperature, and then terminated by harvesting the membrane proteins onto multiscreeen harvest FB plates (Millipore) using Millipore multiscreen separation system. After drying the harvest plates at least for 12 hours, 25 μl of MicroScint-O (Perkin Elmer) was added to each well and radioactivity was measured using a Top Counter.
Having the value measured for the well to which a solvent has been added as a control value, the agonist activity of the compounds was determined by comparing the increase in the well to which a test compound has been added to the control value, and therefore an increase ratio for each concentration of the compounds was obtained. EC50 values were culcurated as defined to be the concentration of agonist required to give 50% of its own maximum increase ratio.

[1] = reported in Non-Patent Document 1; cited from earlier work

EC50 (human S1P1) [nM]	Structure (SMILES)	other results
	Cc1cc(-c2nc(-c3ccc4c(c3)CCC4NC3CC(C(=O)O)C3)no2)c(F)cc1-c1cccc(C(F)(F)F)c1C(F)(F)F.Cl (stereo not drawn) [Example 48]	ED50 (peripheral lymphocytes): < 1 mg/kg
< 10	Cc1cc(-c2nc(-c3ccc4c(c3)CCC4N[C@H]3C[C@H](C(=O)O)C3)no2)ccc1-c1cccc(Cl)c1C(F)(F)F (stereo partly drawn) [Example 50]	
< 10	Cc1cc(-c2nc(-c3ccc4c(c3)CCC4N[C@H]3C[C@H](C(=O)O)C3)no2)c(F)cc1-c1ccsc1 (stereo partly drawn) [Example 5]	
< 10	Cc1cc(-c2nc(-c3ccc4c(c3)CCC4N[C@H]3C[C@H](C(=O)O)C3)no2)c(F)cc1-c1cccc(F)c1 (stereo partly drawn) [Example 23]	
< 10	O=C(O)[C@H]1C[C@H](NC2CCc3cc(-c4noc(-c5ccc(-c6ccccc6)c(Cl)c5)n4)ccc32)C1 (stereo partly drawn) [Example 62]	
	Cc1cc(-c2nc(-c3ccc4c(c3)CCC4NC3CC(C(=O)O)C3)no2)ccc1-c1cc(F)ccc1F.Cl (stereo not drawn) [Example 29]	ED50 (peripheral lymphocytes): < 1 mg/kg
< 10	Cc1cc(-c2nc(-c3ccc4c(c3)CCC4N[C@H]3C[C@H](C(=O)O)C3)no2)ccc1-c1cccc(F)c1C#N (stereo partly drawn) [Example 64]	
< 10	Cc1cc(-c2nc(-c3ccc4c(c3)CN([C@H]3C[C@H](C(=O)O)C3)C4)no2)ccc1-c1cccc(F)c1F [Example 90]	
< 10	Cc1cc(-c2nc(-c3ccc4c(c3)CN([C@H]3C[C@H](C(=O)O)C3)C4)no2)ccc1-c1ccccc1C(F)(F)F [Example 85]	
< 10	Cc1cc(-c2nc(-c3ccc4c(c3)CCC4N[C@H]3C[C@H](C(=O)O)C3)no2)c(F)cc1-c1ccccc1F (stereo partly drawn) [Example 26]	
< 10	Cc1cc(-c2nc(-c3ccc4c(c3)CN([C@H]3C[C@H](C(=O)O)C3)C4)no2)ccc1-c1ccsc1 [Example 78]	
< 10	Cc1cc(-c2nc(-c3ccc4c(c3)CCC4N[C@H]3C[C@H](C(=O)O)C3)no2)ccc1-c1ccsc1 (stereo partly drawn) [Example 3]	
< 10	Cc1cc(-c2nc(-c3ccc4c(c3)CCC4N[C@H]3C[C@H](C(=O)O)C3)no2)ccc1-c1cccc(F)c1F (stereo partly drawn) [Example 28]	
< 10	Cc1cc(-c2nc(-c3ccc4c(c3)CCC4N[C@H]3C[C@H](C(=O)O)C3)no2)ccc1-c1cc(C(F)(F)F)ccc1F (stereo partly drawn) [Example 36]	
< 10	Cc1cc(-c2nc(-c3ccc4c(c3)CN([C@H]3C[C@H](C(=O)O)C3)C4)no2)ccc1-c1cscc1C [Example 88]	
< 10	Cc1cc(-c2nc(-c3ccc4c(c3)CCC4N[C@H]3C[C@H](C(=O)O)C3)no2)ccc1-c1ccccc1F (stereo partly drawn) [Example 20]	
< 10	Cc1cc(-c2nc(-c3ccc4c(c3)CN([C@H]3C[C@@H](C(=O)O)C3)C4)no2)ccc1-c1ccccc1 [Example 104]	
< 10	Cc1cc(-c2nc(-c3ccc4c(c3)CCC4N[C@H]3C[C@H](C(=O)O)C3)no2)c(F)cc1-c1ccccc1C(F)(F)F (stereo partly drawn) [Example 30]	
< 10	Cc1cc(-c2nc(-c3ccc4c(c3)CN([C@H]3C[C@@H](C(=O)O)C3)C4)no2)c(F)cc1-c1cc(F)cc(F)c1F [Example 106]	
< 10	Cc1cc(-c2nc(-c3ccc4c(c3)CN([C@H]3C[C@H](C(=O)O)C3)C4)no2)ccc1-c1cc(F)cc(F)c1F [Example 100]	
< 10	Cc1cc(-c2nc(-c3ccc4c(c3)CCC4N[C@H]3C[C@H](C(=O)O)C3)no2)c(F)cc1-c1cccc(C(F)(F)F)c1F (stereo partly drawn) [Example 41]	
< 10	Cc1cc(-c2nc(-c3ccc4c(c3)CN([C@H]3C[C@H](C(=O)O)C3)C4)no2)c(F)cc1-c1cc(F)cc(F)c1F [Example 102]	
< 10	O=C(O)[C@H]1C[C@H](NC2CCc3cc(-c4noc(-c5ccc(-c6ccccc6F)c(F)c5)n4)ccc32)C1 (stereo partly drawn) [Example 61]	
< 10	Cc1cc(-c2nc(-c3ccc4c(c3)CCC4N[C@H]3C[C@H](C(=O)O)C3)no2)ccc1-c1cccc(C(F)(F)F)c1F (stereo partly drawn) [Example 31]	
< 10	Cc1cc(-c2nc(-c3ccc4c(c3)CCC4N[C@H]3C[C@H](C(=O)O)C3)no2)ccc1-c1cccc(C)c1F (stereo partly drawn) [Example 37]	
< 10	N#Cc1ccccc1-c1ccc(-c2nc(-c3ccc4c(c3)CCC4N[C@H]3C[C@H](C(=O)O)C3)no2)cc1Cl (stereo partly drawn) [Example 63]	

EC50 (human S1P1) [nM]	Structure (SMILES)	other results
< 10	Cc1cscc1-c1c(C)cc(-c2nc(-c3ccc4c(c3)CCC4N[C@H]3C[C@H](C(=O)O)C3)no2)cc1C (stereo partly drawn) [Example 22]	
	Cc1cc(-c2nc(-c3ccc4c(c3)CCC4NC3CC(C(=O)O)C3)no2)ccc1-c1cccc(F)c1F.Cl (stereo not drawn) [Example 28]	ED50 (peripheral lymphocytes): < 1 mg/kg
< 10	Cc1cc(-c2nc(-c3ccc4c(c3)CCC4N[C@H]3C[C@H](C(=O)O)C3)no2)ccc1-c1ccccc1C(F)(F)F (stereo partly drawn) [Example 21]	
< 10	Cc1cc(-c2nc(-c3ccc4c(c3)CCC4N[C@H]3C[C@H](C(=O)O)C3)no2)ccc1-c1cccc(Br)c1C(F)(F)F (stereo partly drawn) [Example 51]	
< 10	Cc1cc(-c2nc(-c3ccc4c(c3)CCC4N[C@H]3C[C@H](C(=O)O)C3)no2)cc(C)c1-c1ccccc1F (stereo partly drawn) [Example 15]	
< 10	Cc1cc(-c2nc(-c3ccc4c(c3)CCC4N[C@H]3C[C@H](C(=O)O)C3)no2)c(F)cc1-c1ccccc1 (stereo partly drawn) [Example 12]	
	CCCCCCCCc1ccc(CCC(N)(CO)CO)cc1 [FTY720]	side effect after administration [1]: bradycardia is found after administration
	Cc1cc(-c2nc(-c3ccc4c(c3)CCC4NC3CC(C(=O)O)C3)no2)ccc1-c1cccc(F)c1.Cl (stereo not drawn) [Example 4]	ED50 (peripheral lymphocytes): < 1 mg/kg
< 10	Cc1cc(-c2nc(-c3ccc4c(c3)CCC4N[C@H]3C[C@H](C(=O)O)C3)no2)c(F)cc1-c1ccoc1 (stereo partly drawn) [Example 13]	
< 10	Cc1cc(-c2nc(-c3ccc4c(c3)CCC4N[C@H]3C[C@H](C(=O)O)C3)no2)c(F)cc1-c1cccc(F)c1C(F)(F)F (stereo partly drawn) [Example 40]	
< 10	Cc1cc(-c2nc(-c3ccc4c(c3)CCC4N[C@H]3C[C@H](C(=O)O)C3)no2)ccc1-c1cc(F)ccc1C#N (stereo partly drawn) [Example 65]	
< 10	Cc1cc(-c2nc(-c3ccc4c(c3)CCC4N[C@H]3C[C@H](C(=O)O)C3)no2)ccc1-c1cscc1C (stereo partly drawn) [Example 25]	
< 10	CSc1ccccc1-c1ccc(-c2nc(-c3ccc4c(c3)CN([C@H]3C[C@H](C(=O)O)C3)C4)no2)cc1C [Example 10]	
< 10	Cc1cc(-c2nc(-c3ccc4c(c3)CCC4N[C@H]3C[C@H](C(=O)O)C3)no2)ccc1-c1cccc(F)c1C(F)(F)F (stereo partly drawn) [Example 39]	
< 10	Cc1cc(-c2nc(-c3ccc4c(c3)CN([C@H]3C[C@H](C(=O)O)C3)C4)no2)c(F)cc1-c1ccccc1F [Example 89]	
< 10	Cc1cc(-c2nc(-c3ccc4c(c3)CN([C@H]3C[C@H](C(=O)O)C3)C4)no2)ccc1-c1cccc(F)c1C(F)(F)F [Example 95]	
< 10	Cc1cc(-c2nc(-c3ccc4c(c3)CCC4N[C@H]3C[C@H](C(=O)O)C3)no2)ccc1-c1cc(F)ccc1F (stereo partly drawn) [Example 29]	
< 10	Cc1cc(-c2nc(-c3ccc4c(c3)CCC4N[C@H]3C[C@H](C(=O)O)C3)no2)ccc1-c1cccc(C(F)(F)F)c1C(F)(F)F (stereo partly drawn) [Example 47]	
< 10	CSc1ccccc1-c1ccc(-c2nc(-c3ccc4c(c3)CCC4N[C@H]3C[C@H](C(=O)O)C3)no2)cc1C (mixture of isomers) [Example 6, 1,3-Trans-3-(5-(5-(2-methyl-2′-methylthiobiphenyl-4-yl)-1,2,4-oxadiazol-3-yl)-2,3-dihydro-1H-inden-1-ylamino)cyclobutane carboxylic acid hydrochloric acid salt]	
< 10	Cc1cc(-c2nc(-c3ccc4c(c3)CCC4N[C@H]3C[C@H](C(=O)O)C3)no2)c(F)cc1-c1cccc(F)c1F (stereo partly drawn) [Example 32]	
< 10	Cc1cc(-c2nc(-c3ccc4c(c3)CN([C@H]3C[C@H](C(=O)O)C3)C4)no2)ccc1-c1cccc(C(F)(F)F)c1F [Example 92]	
< 10	Cc1cc(-c2nc(-c3ccc4c(c3)CCC4N[C@H]3C[C@H](C(=O)O)C3)no2)ccc1-c1cccc(F)c1 (stereo partly drawn) [Example 4]	
< 10	Cc1cc(-c2nc(-c3ccc4c(c3)CCC4N[C@H]3C[C@H](C(=O)O)C3)no2)ccc1-c1c(F)ccc(F)c1F (stereo partly drawn) [Example 45]	
< 10	Cc1cc(-c2nc(-c3ccc4c(c3)CCC4N[C@H]3C[C@H](C(=O)O)C3)no2)ccc1-c1cccc(Cl)c1F (stereo partly drawn) [Example 34]	
	Cc1cc(-c2nc(-c3ccc4c(c3)CCC4NC3CC(C(=O)O)C3)no2)c(F)cc1-c1cccc(F)c1F.Cl (stereo not drawn) [Example 32]	ED50 (peripheral lymphocytes): < 1 mg/kg

— patent US20090298894A1, “AMINO ACID COMPOUNDS” (Asahi Kasei Pharma Corporation, priority 2008, published 2009)
